Reference: patent US9364448B2, “Nitisinone for treatment of oculocutaneous/ocular albinism and for increasing pigmentation” (The United States of America, as represented by the …, priority 2010, dated 2016)

Key:
[1] = system: C57BL/6J-Tyr^c-h/c-h mice (OCA1b model); test: Plasma tyrosine in NTBC-treated Tyr^c-h/c-h (Himalayan) mice; assay type: in vivo, mouse
Procedure: Drug Dosing and Monitoring.
Plasma tyrosine was assayed from retro-orbital blood taken from mice at 1 week, and 4 weeks into treatment. Because the volume of blood that could be obtained from non-terminal bleeds was small, the plasma from 2-3 mice was pooled to make a single measurement. Plasma samples were frozen immediately after collection on dry ice. Samples ready for assay were gently thawed, diluted with an equal volume of loading buffer (0.2 M lithium citrate, pH 2.2), and filtered using Vivaspin 500 (3000 Da molecular weight cut-off, Sartorius Stedman Biotech, Goettingen, Germany) spun in a fixed angle centrifuge at about 14000×g for 60 minutes at a temperature of about 16-20° C. The supernatant was collected and tyrosine was quantitated on a Biochrom 30 […] (Biochrom, Ltd., Cambridge, UK) using the manufacturer's specifications.
Using the same protocol as described above, baseline plasma tyrosine, coat color (gross and microscopic), anterior segment pigment, and posterior segment pigment was documented for each mouse prior to initiating experiments. […] These treated mice were compared to an age- and gender-matched cohort of C57BL/6J-Tyr^c-h/c-h mice over the same time period. Corneal irritation due to NTBC treatment was monitored daily. At the start of treatment, an area of hair was plucked/shaved from each mouse's back, which has the effect of stimulating new hair growth and possibly new pigment deposition in the hair shaft. At the end of four weeks' time, plasma tyrosine concentrations were assessed in both treated and control animals.

[2] = system: melanocytes from a patient with OCA-1B; test: Human melanocyte melanin assay, OCA-1B patient; assay type: cell-based; settings: 1 mM tyrosine, p=0.0025, not to wild-type level
Procedure: Human melanocyte culture and melanin assay. Human melanocytes were established from skin punch biopsies. Skin specimens were washed with PBS then treated with 0.25% trypsin-EDTA (Gibco 25200) for about 2 hours followed by vigorous vortexing to separate the epidermis. The epidermis was sectioned and attached to scored patches on the bottom of a 6-well polystyrene culture dish before being covered with melanocyte media. About 1000 ml of melanocyte media was made from 950 ml Ham's F10 (Gibco 1550), 25 ml FBS, 5 ug bFGF (Sigma F0291), 10 μg endothelin (Sigma, E7764, Sigma Chemicals, St. Louis, Mo.), 7.5 mg IBMX (Sigma 17018), 30 μg cholera toxin (Sigma C8052), 3.3 μg TPA (Sigma P8139), 10 ml PenStrepGlutamine, 1 ml fungizone and the media was 0.22 μm filtered.
Melanocytes were plated on 6 well dishes and grown to confluency. Melanin assays were run in triplicate by supplementing three wells per plate with 1 mM tyrosine (Sigma T8566), using the remaining 3 wells as untreated controls. Treatment time was approximately one week. […] The OD475 was measured and converted to melanin content via a standard curve using synthetic melanin (Sigma M0418). The data were normalized to protein content, determined using a bicinchoninic (BCA) assay kit (BioRad, Inc., Hercules, Calif.). Differences between treated and untreated measurements were analyzed with a two-tailed unpaired t-test. […]

SMILES | Plasma tyrosine concentration ([1]; Tyr^c-h (OCA1b model), 4 mg/kg q.o.d. oral, after 30 days, n = 4) | Increase in steady-state plasma tyrosine concentrations ([1]; Tyr^c-h/c-h mice, 4 mg/kg orally every other day, vs control) [fold] | Plasma tyrosine concentrations, treated vs control ([1]; Tyr^c-h/c-h mice, dose as in Example 1 (1 mg/kg every other day), one month) | Pigmentation [2]
O=C1CCCC(=O)C1C(=O)c1ccc(C(F)(F)F)cc1[N+](=O)[O-] [NTBC, 2-(-2-nitro-4 trifluoromethylbenzoyl)-1,3 cyclohexanedione] | 305 ± 35 μM (n = 4, | ~4 | not statistically significantly different | –
N[C@@H](Cc1ccc(O)cc1)C(=O)O [tyrosine] | – | – | – | significantly increased pigmentation
